According to patent US20190218304A1, “POTENTIATING THE EFFECT OF ATP RELEASE” (INNATE PHARMA, priority 2017, published 2019):

System: MCA205 mouse tumor cells (sarcoma)
Assay: In vivo combination treatment, MCA205 tumors in human CD39 KI mice
[1] = first experimental series: oxaliplatin at day 5, murine I-394 twice a week from day 4
[2] = second experimental series, repeated oxaliplatin

Description: 1×10^6 MCA205 mouse tumor cells (sarcoma) were subcutaneously engrafted in the right flank of mice genetically modified to express human CD39 (CD39KI mice). […] Tumors were measured twice a week with a caliper (L: length and w: width) and tumor volume was calculated with the formula (L×w2)/2. Mice were sacrificed when tumor volume was above 1800 mm^3 or when tumors were highly necrosed. The human CD39 KI mice were engrafted with MCA205 tumor cells at day 0.
In a first experimental series, mice were treated at day 5 post tumor cell engraftment with either control (1 group) PBS, or oxaliplatin chemotherapy (2 groups). In parallel, one group of mice treated with oxaliplatin was injected twice a week with anti-CD39 antibody, with the anti-CD39 antibody treatment starting just one day before oxaliplatin treatment (at day 4).

## O=C1[O][Pt]2([NH][C@@H]3CCCC[C@H]3[NH]2)[O]C1=O [oxaliplatin]
[1]
  Complete Response (CR), number of mice: no CR
  Survival median: 25 days
Second experimental series, 40 days post tumor engraftment
  tumor free mice: 2/12
[2]
  CR (complete responses), number of mice: 2
  partial responses (PR), number of mice: 3
Second experimental series: oxaliplatin injected twice, one week apart, one day after I-394
  effect on tumor growth / tumor volume and mice survival: some regression of tumor volume, and increase in mice survival
